Laboratory results from patent publication US20230271949A1, “GLP-1R MODULATING COMPOUNDS” (ASCLETIS BIOSCIENCE CO., LTD., priority 2022, published 2023).

Target: GLP-1R (Homo sapiens, UniProt P43220)
Test: GLP-1R agonist cAMP stimulation assay (HTRF cAMP)
Type: cell-based
Conditions: HEK293 cell line expressing GLP-1 target; HTRF cAMP agonist mode, 30 min at RT
Method: cAMP Detection Kit, Cisbio (Cat #62AM4PEJ)
The cell line was constructed by WuXi.
2. Methods • a) The compound source plate preparation: • The reference 7-37 was diluted from 500 nM, 4-fold, 10 points in DMSO using Bravo. The compounds were diluted from […], 3-fold, 10 points in DMSO using Bravo. • b) Transfer of compounds: • 1) Use Echo transfer 100 nL cpd to the OptiPlate-384 plate. • 2) Spin the plates at 1000 rpm for 5 sec. • c) Cell suspension preparation: • 1) Thaw 1 vial of GLP-1 cells rapidly in 37° C. water bath. • 2) Transfer cell suspension into 10 ml of HBSS in a 15 ml conical tube. • 3) Centrifuge cells at 1000 rpm for 5 min at room temperature to pellet cells • 4) Gently aspirate supernatant being careful not to aspirate cells. • 5) Flick pellet to loose cells and re-suspend the cell pellet in 10 ml HBSS. Use a sterile pipette to pipette up and down to dislodge clumps. • 6) Count cells for concentration and to determine cell viability on Vi-cell. • 7) Re-suspend the GLP-1 cells in assay buffer at a concentration of 1.0×E5/mL cells. • 8) Transfer 10 μL GLP-1 cells to OptiPlate-384 plate. • d) HTRF cAMP Assay for agonist: • 1) Incubate the plate at RT for 30 min before adding the detection reagent. • 2) Add 10 μL each of detection reagent using Electric Multiple Channel Pipette. • 3) Cover the 384 plate with TopSeal-A film and incubate for 60 minutes at room temperature. • Remove the TopSeal-A, read on EnVision.
Create a new log (Inhibitor) vs response—Variable slope mode in Prism5.0 software, substitute the standard curve concentration (x) and its corresponding 665/615 data (y) into the model, convert the standard curve concentration (abscissa) by x=log(x), and make the standard curve through the converted xy.
Transform the data of 665/615 in the whole plate into a column of data, substitute it into y in the table of standard curve concentration (x) and 665/615 data (y), copy the x (interpolatedx) corresponding to automatic conversion by the software into a table, convert it into cAMP level by the formula x=10^(x), and reset the data into 384 distribution.
% Activity=(cAMP level−LC)/(HC−LC)*100% • Z factor: 1-3*(STD_HC+[…])/(HC-LC) • Assay Window: HC/LC • LC: The average cAMP level of adding DMSO wells • HC: The average cAMP level of adding the top concentration of reference compounds wells.
Create a new […] in Prism5.0 software, substitute the sample concentration (x) and its corresponding % Activity data (y) into the model, convert the standard curve concentration (abscissa) to x=log(x), and make the sample curve through the converted xy.

GLP-1R, sequence (P43220 24-463): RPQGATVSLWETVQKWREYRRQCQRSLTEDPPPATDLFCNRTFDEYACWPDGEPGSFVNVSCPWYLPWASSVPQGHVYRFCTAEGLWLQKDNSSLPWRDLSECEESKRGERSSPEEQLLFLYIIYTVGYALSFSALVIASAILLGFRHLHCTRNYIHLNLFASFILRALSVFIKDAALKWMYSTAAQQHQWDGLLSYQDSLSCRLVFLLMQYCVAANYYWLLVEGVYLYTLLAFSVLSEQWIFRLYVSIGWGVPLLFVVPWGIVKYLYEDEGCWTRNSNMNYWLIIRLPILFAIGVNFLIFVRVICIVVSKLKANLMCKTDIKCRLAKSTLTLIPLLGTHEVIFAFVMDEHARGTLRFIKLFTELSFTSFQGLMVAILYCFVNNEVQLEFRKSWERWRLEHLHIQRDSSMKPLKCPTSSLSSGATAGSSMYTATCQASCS

Compound | EC50 [nM]
Cc1n[nH]c2c(C(F)(F)F)cc(C(=O)Nc3ccc4c(c3)nc(Cc3ccc(-c5cccc6c5OC(C)(c5ccc(C#N)cc5F)O6)cc3F)n4C[C@@H]3CCO3)cc12 (some centres unmarked) [Compound 325] | 1.05
O=C(Nc1cc2[nH]c(=O)[nH]c2cc1F)c1ccc2c(c1)nc(CN1CCC(c3cccc(OCc4ccc(Cl)cc4F)n3)CC1)n2C[C@@H]1CCO1 [Compound 92] | 18.6
CC1(c2ccc(C#N)cc2F)Oc2cccc(C3=CCN(Cc4nc5cc(NC(=O)c6ccc7[nH]nc(C8CC8)c7c6)ccc5n4CC4CCO4)CC3)c2O1 (centres unmarked) [Compound 312] | 0.99
CC(=O)c1n[nH]c2ccc(C(=O)Nc3ccc4c(c3)nc(CN3CC=C(c5cccc(OCc6ccc(Cl)cc6F)n5)CC3)n4C[C@@H]3CCO3)cc12 [Compound 395] | 10.3
Cc1n[nH]c2cc(F)c(C(=O)Nc3ccc4c(c3)nc(CN3CC=C(c5cccc(OCc6ccc(Cl)cc6F)n5)CC3)n4C[C@@H]3CCO3)cc12 [Compound 221] | 2.13
Cc1n[nH]c2c(C)cc(NC(=O)c3ccc4c(c3)nc(CN3CC=C(c5cccc(OCc6cc(F)c(C#N)s6)n5)CC3)n4C[C@@H]3CCO3)cc12 [Compound 364] | 0.38
COCCn1c(CN2CCC(c3cccc(OCc4ccc(Cl)cc4F)n3)CC2)nc2cc(C(=O)NCCc3ccc(C(F)(F)F)cc3)ccc21 [Compound 23] | > 10000
Cc1cc(C(=O)Nc2ccc3c(c2)nc(CN2CC=C(c4cccc5c4OC(C)(c4ccc(Cl)cc4F)O5)CC2)n3C[C@@H]2CCO2)cc2c1NC(=O)C21CC1 (some centres unmarked) [Compound 307] | 0.21
C[C@@H](NC(=O)c1ccc2c(c1)nc(CN1CCC(c3cccc(OCc4ccc(Cl)cc4F)n3)CC1)n2C[C@@H]1CCO1)C(=O)N1C[C@@H](O)C[C@@H]1C(=O)O [Compound 65] | 1.75
N#Cc1ccc(COc2cccc(C3CCN(Cc4nc5cc(C(=O)Nc6cc(F)c7c(c6)C6(CC6)C(=O)N7)ccc5n4C[C@@H]4CCO4)CC3)n2)c(F)c1 [Compound 125] | 0.55
Cc1n[nH]c2ccc(NC(=O)c3ccc4c(c3)nc(CN3CC=C(c5cccc(OCc6c(F)cnc7ccccc67)n5)CC3)n4C[C@@H]3CCO3)cc12 [Compound 368] | 9.19
Cc1n[nH]c2c(C(F)(F)F)cc(C(=O)Nc3ccc4c(c3)nc(CN3CC=C(c5cccc(OCc6ccc(Cl)cc6F)n5)CC3)n4C[C@@H]3CCO3)cc12 [Compound 210] | 0.39
Cc1n[nH]c2c(C)cc(NC(=O)c3ccc4c(c3)nc(CN3CC=C(c5cccc6c5OC(C)(c5ccc(C#N)cc5F)O6)CC3)n4CC3CCO3)cc12 (centres unmarked) [Compound 299] | 0.16
Cc1n[nH]c2c(Cl)cc(NC(=O)c3ccc4c(c3)nc(CN3CCC(c5cccc6c5OC(C)(c5ccc(Cl)cc5F)O6)CC3)n4CC3CCO3)cc12 (centres unmarked) [Compound 338] | 1.32
Cc1cc(NC(=O)c2ccc3c(c2)nc(CN2CC=C(c4cccc(OCc5cc(F)c(C#N)s5)n4)CC2)n3C[C@@H]2CCO2)cc2c(C(F)(F)F)n[nH]c12 [Compound 365] | 1.32
COCCn1c(CN2CCC(c3cccc(OCc4ccc(Cl)cc4F)n3)CC2)nc2cc(C(=O)Nc3ccc(O)cc3)ccc21 [Compound 75] | > 10000
Cc1cc(NC(=O)c2ccc3c(c2)nc(CN2CC=C(c4cccc5c4OC(C)(c4ccc(Cl)cc4F)O5)CC2)n3C[C@@H]2CCO2)cc2[nH]c(=O)[nH]c12 (some centres unmarked) [Compound 303] | 0.91
O=C(Nc1ncc2[nH]cnc2n1)c1ccc2c(c1)nc(CN1CCC(c3cccc(OCc4ccc(Cl)cc4F)n3)CC1)n2C[C@@H]1CCO1 [Compound 89] | 87.8
Cc1n[nH]c2ccc(NC(=O)c3ccc4c(c3)nc(CN3CC=C(c5cccc(OCc6ccc(Cl)cc6F)n5)CC3)n4C[C@@H]3CCO3)c(F)c12 [Compound 176] | 0.87
O=C(Nc1ccc2c(c1)nc(CN1CC=C(c3cccc(OCc4ccc(Cl)cc4F)n3)CC1)n2C[C@@H]1CCO1)c1ccc2[nH]ccc2c1 [Compound 393] | 15.2
Cc1n[nH]c2c(C(F)(F)F)cc(C(=O)Nc3ccc4c(c3)nc(C3CC35CCN(c3cccc(OCc6ccc(Cl)cc6F)n3)CC5)n4C[C@@H]3CCO3)cc12 (some centres unmarked) [Compound 253] | 2.01
COCCn1c(CN2CCC(c3cccc(OCc4ccc(Cl)cc4F)n3)CC2)nc2cc(C(=O)NCc3ccc(NC(C)=O)cc3)ccc21 [Compound 27] | 129

Compound | EC50 [nM]
Fc1cc(Cl)ccc1COc1cccc(C2=CCN(Cc3nc4ccc(CNc5cc(F)c6[nH]ncc6c5)cc4n3C[C@@H]3CCO3)CC2)n1 [Compound 268] | 3.64
Cc1n[nH]c2c(C)cc(NC(=O)c3ccc4c(c3)nc(CN3CCC(c5cccc(OCc6cc(F)c(C#N)s6)n5)CC3)n4C[C@@H]3CCO3)cc12 [Compound 376] | 0.98
CCc1n[nH]c2ccc(NC(=O)c3ccc4c(c3)nc(CN3CCC(c5cccc(OCc6ccc(C#N)cc6F)n5)CC3)n4C[C@@H]3CCO3)cc12 [Compound 135] | 1.25
Cc1n[nH]c2c(F)cc(C(=O)Nc3ccc4nc(CN5CC=C(c6cccc(OCc7ccc(Cl)cc7F)n6)CC5)n(CC5CCO5)c4c3)cc12 (centres unmarked) [Compound 277] | 0.76
Cc1n[nH]c2c(F)cc(NC(=O)c3ccc4c(c3)nc(CN3CC=C(c5cccc(OCc6ccc(C#N)cc6F)n5)CC3)n4C[C@@H]3CCO3)cc12 [Compound 177] | 0.23
CCc1n[nH]c2ccc(C(=O)Nc3ccc4c(c3)nc(CN3CCC(c5cccc6c5OC(C)(c5ccc(C#N)cc5F)O6)CC3)n4CC3CCO3)cc12 (centres unmarked) [Compound 346] | 0.76
Cc1cc2c(C#N)ccc(COc3cccc(C4=CCN(Cc5nc6cc(C(=O)Nc7ccc8[nH]nc(C(F)(F)F)c8c7)ccc6n5C[C@@H]5CCO5)CC4)n3)c2o1 [Compound 356] | 2.21
O=C(Nc1ccc2c(c1)nc(CN1CC=C(c3cccc(OCc4ccc(Cl)cc4F)n3)CC1)n2C[C@@H]1CCO1)c1cc(F)c2[nH]ncc2c1 [Compound 205] | 0.98
O=C(Nc1cc(C(F)(F)F)c2c(c1)C1(CC1)C(=O)N2)c1ccc2c(c1)nc(CN1CCC(c3cccc(OCc4ccc(Cl)cc4F)n3)CC1)n2C[C@@H]1CCO1 [Compound 107] | 1.83
Cc1cc(NC(=O)c2ccc3c(c2)nc(CN2CCC(c4cccc(OCc5ccc(Cl)cc5F)n4)CC2)n3C[C@@H]2CCO2)cc2nn[nH]c12 [Compound 194] | 0.33
N#Cc1ccc(COc2cccc(C3CCN(Cc4nc5cc(C(=O)Nc6cc(F)c7[nH]ncc7c6)ccc5n4C[C@@H]4CCO4)CC3)n2)c(F)c1 [Compound 129] | 1.14
Cc1n[nH]c2ccc(C(=O)Nc3ccc4nc(CN5CC=C(c6cccc(OCc7ccc(Cl)cc7F)n6)CC5)n(CC5CCO5)c4c3)cc12 (centres unmarked) [Compound 278] | 3.18
COCCn1c(CN2CCC(c3cccc(OCc4ccc(Cl)cc4F)n3)CC2)nc2cc(C(=O)NCC(CC(=O)O)c3ccccc3)ccc21 (centres unmarked) [Compound 41] | 376
O=C(Nc1ccc2c(c1)C1(CC1)C(=O)N2)c1ccc2c(c1)nc(CN1CC=C(c3cccc(OCc4ccc(Cl)cc4F)n3)CC1)n2C[C@@H]1CCO1 [Compound 143] | 0.75
Cc1cc(NC(=O)c2ccc3c(c2)nc(CN2CCC(c4cccc5c4OC(C)(c4ccc(Cl)cc4F)O5)CC2)n3C[C@@H]2CCO2)cc2c1NC(=O)C21CC1 (some centres unmarked) [Compound 337] | 0.45
Cc1cc(C(=O)Nc2ccc3c(c2)nc(CN2CC=C(c4cccc(OCc5ccc(C#N)cc5F)n4)CC2)n3C[C@@H]2CCO2)cc2c(C(F)F)n[nH]c12 [Compound 228] | 1.26
Cc1cc(NC(=O)c2ccc3c(c2)nc(CN2CC=C(c4cccc(OCc5ccc(C#N)cc5F)n4)CC2)n3C[C@@H]2CCO2)cc2cn[nH]c12 [Compound 188] | 1.19
NC(=O)C[C@H](NC(=O)c1ccc2c(c1)nc(CN1CCC(c3cccc(OCc4ccc(Cl)cc4F)n3)CC1)n2CC1CCO1)C(=O)O (some centres unmarked) [Compound 52] | 12.8
Cc1n[nH]c2c(F)cc(NC(=O)c3ccc4c(c3)nc(CN3CC=C(c5cccc(OCc6ccc(C#N)c7c6ncn7C)n5)CC3)n4C[C@@H]3CCO3)cc12 [Compound 367] | 3.92
CNS(=O)(=O)Cc1ccc2[nH]cc(CCNC(=O)c3ccc4c(c3)nc(CN3CCC(c5cccc(OCc6ccc(Cl)cc6F)n5)CC3)n4CCOC)c2c1 [Compound 39] | 286
Cc1n[nH]c2c(C)cc(NC(=O)c3ccc4c(c3)nc(CN3CC=C(c5cccc(OCc6ccc(Cl)cn6)n5)CC3)n4C[C@@H]3CCO3)cc12 [Compound 165] | 0.88
COc1n[nH]c2ccc(NC(=O)c3ccc4c(c3)nc(CN3CC=C(c5cccc(OCc6ccc(Cl)cc6F)n5)CC3)n4C[C@@H]3CCO3)cc12 [Compound 138] | 8.92
